This experiment concerns the target T1, Rhesus PDE2A3 (Macaca mulatta, UniProt B3VTJ2).
T1 construct: made in house; host or cells: AD293 cells, transient transfection; supernatant of sonicated lysate
T1 sequence (B3VTJ2 1-941): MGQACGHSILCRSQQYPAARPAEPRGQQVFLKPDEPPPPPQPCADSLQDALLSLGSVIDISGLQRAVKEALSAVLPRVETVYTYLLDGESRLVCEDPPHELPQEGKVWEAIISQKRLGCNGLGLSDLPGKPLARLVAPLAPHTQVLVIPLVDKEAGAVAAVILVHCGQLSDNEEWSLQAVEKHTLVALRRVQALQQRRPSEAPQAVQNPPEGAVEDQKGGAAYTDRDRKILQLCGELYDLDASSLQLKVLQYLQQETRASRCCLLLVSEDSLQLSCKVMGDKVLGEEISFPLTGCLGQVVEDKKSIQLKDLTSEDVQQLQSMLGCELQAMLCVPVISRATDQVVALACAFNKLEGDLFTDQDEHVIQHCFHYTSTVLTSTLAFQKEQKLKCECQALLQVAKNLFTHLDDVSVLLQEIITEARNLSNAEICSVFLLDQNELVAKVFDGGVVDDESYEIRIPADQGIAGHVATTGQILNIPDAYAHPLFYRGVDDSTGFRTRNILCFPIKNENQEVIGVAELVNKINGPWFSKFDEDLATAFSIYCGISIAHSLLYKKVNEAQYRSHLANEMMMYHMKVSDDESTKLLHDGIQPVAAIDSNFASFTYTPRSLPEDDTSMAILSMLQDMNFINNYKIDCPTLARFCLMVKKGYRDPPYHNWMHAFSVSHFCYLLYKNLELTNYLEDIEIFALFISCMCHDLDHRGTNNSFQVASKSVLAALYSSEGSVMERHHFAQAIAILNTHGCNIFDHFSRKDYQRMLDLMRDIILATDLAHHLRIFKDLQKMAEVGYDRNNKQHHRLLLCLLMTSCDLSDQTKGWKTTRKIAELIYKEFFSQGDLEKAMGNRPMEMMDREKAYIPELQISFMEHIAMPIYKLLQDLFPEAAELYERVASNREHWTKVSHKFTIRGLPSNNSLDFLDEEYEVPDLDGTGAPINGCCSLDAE
The experiment in a line: PDE2 fluorescence polarization (IMAP FP) inhibition assay, rhesus PDE2A3. In kind it is biochemical, rhesus macaque. A digest of the protocol: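 Enzyme source was the lysate supernatant of AD293 cells transiently expressing rhesus PDE2A3, diluted to give 20% conversion of 50 nM FAM-cAMP, with 1 µM cGMP as activator. Buffer was 10 mM Tris pH 7.2, 10 mM MgCl2, 1 mM DTT.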

Setting [1] is: Lab A, read-out: Rhesus PDE2 Ki (nM) Lab A.
The mark [2] stands for this setting: Lab B, read-out: Rhesus PDE2 Ki (nM) Lab B.

Where two headings read alike, the source gives them in different places.

As for `Cc1nc2c(c(CO)nn2C(C)c2ccc(C(F)(F)F)c(F)c2)c(=O)[nH]1` (single isomer, unassigned) [Example 12, (R)- or (S)-1-(1-(3-Fluoro-4-(trifluoromethyl)phenyl)ethyl)-3-(hydroxymethyl)-6-methyl-1H-pyrazolo[3,4-d]pyrimidin-4(5H)-one], the Ki by setting is: under setting [1], 278 nM; under setting [2], 514 nM. Taken in the same sequence, the figures for `COc1ccc(Cc2nc3c(c(CF)nn3C(C)c3ccc(C(F)(F)F)cc3)c(=O)[nH]2)cc1OC` (single isomer, unassigned) [Example 222, (R)- or (S)-6-(3,4-Dimethoxybenzyl)-3-(fluoromethyl)-1-(1-(4-(trifluoromethyl)phenyl)ethyl)-1,5-dihydro-4H-pyrazolo[3,4-d]pyrimidin-4-one] were 0.17 nM and approximately 0.28 nM. Taken in the same sequence, the figures for `Cc1nc2c(c(CF)nn2C(c2ccc(C(F)(F)F)cc2)C(F)(F)F)c(=O)[nH]1` (stereo not drawn) [Example 201, 3-(Fluoromethyl)-6-methyl-1-(2,2,2-trifluoro-1-(4-(trifluoromethyl)phenyl)-ethyl)-1H-pyrazolo[3,4-d]pyrimidin-4(5H)-one] were 1.4 nM and 4.1 nM. Take `Cc1nn(C(C)c2ccc(C(F)(F)F)cc2)c2nc(-c3ccco3)[nH]c(=O)c12` (stereo not drawn) [Example 49, 6-Furan-2-yl-3-methyl-1-{1-[4-(trifluoromethyl)phenyl]ethyl}-1,5-dihydro-4H-pyrazolo[3,4-d]pyrimidin-4-one]: the Ki under setting [1] came out at 9 nM.

As for `Cc1nc2c(c(CO)nn2[C@@H](C)c2ccc(OC(F)(F)F)cc2)c(=O)[nH]1` [Example 158, (S)-3-(Hydroxymethyl)-6-methyl-1-(1-(4-(trifluoromethoxy)phenyl)ethyl)-1H-pyrazolo[3,4-d]pyrimidin-4(5H)-one], the Ki under setting [2] worked out at 4.5 nM.

For the compound `Cc1nn(C(C)c2ccc(C(F)(F)F)cc2)c2nc(Cc3ccccc3O)[nH]c(=O)c12` (stereo not drawn) [Example 31, 6-(2-Hydroxybenzyl)-3-methyl-1-(1-(4-(trifluoromethyl)phenyl)ethyl)-1H-pyrazolo[3,4-d]pyrimidin-4(5H)-one], the Ki is, setting by setting: under setting [1], 65 nM; under setting [2], 128 nM.

On to `COc1ccc(Cc2nc3c(c(C)nn3C(C)c3ccc(C(F)(F)F)cc3)c(=O)[nH]2)cc1` (stereo not drawn) [Example 46, 6-(4-Methoxybenzyl)-3-methyl-1-{1-[4-(trifluoromethyl)phenyl]ethyl}-1,5-dihydro-4H-pyrazolo[3,4-d]pyrimidin-4-one], for which the Ki under setting [1] is 7.1 nM. For `Cc1nc2c(c(CO)nn2[C@@H](c2ccc(C(C)(C)C)cc2)C(C)C)c(=O)[nH]1` [Example 160, (R)-1-(1-(4-tert-Butylphenyl)-2-methylpropyl)-3-(hydroxymethyl)-6-methyl-1H-pyrazolo[3,4-d]pyrimidin-4(5H)-one], under setting [2], the Ki is 0.3 nM.

Consider `Cc1nc2c(c(CO)nn2[C@H](c2ccc(C(C)(C)C)cc2)C(C)C)c(=O)[nH]1` [Example 159, (S)-1-(1-(4-tert-Butylphenyl)-2-methylpropyl)-3-(hydroxymethyl)-6-methyl-1H-pyrazolo[3,4-d]pyrimidin-4(5H)-one], for which the Ki under setting [2] came out at 2.8 nM. With `Cc1nc2c(c(CO)nn2C(C)c2ccc(OC(F)(F)F)c(F)c2)c(=O)[nH]1` (single isomer, unassigned) [Example 10, (R)- or (S)-1-(1-(3-Fluoro-4-(trifluoromethoxy)phenyl)ethyl)-3-(hydroxymethyl)-6-methyl-1H-pyrazolo[3,4-d]pyrimidin-4(5H)-one], the Ki under setting [1] was found to be 39 nM and the Ki under setting [2] was 103 nM. In the case of `Cc1nc2c(c(C(O)C(F)(F)F)nn2C(C)c2ccc(C(F)(F)F)cc2)c(=O)[nH]1` (stereo not drawn) [Example 327, 6-Methyl-3-(2,2,2-trifluoro-1-hydroxyethyl)-1-{1-[4-(trifluoromethyl)phenyl]ethyl}-1,5-dihydro-4H-pyrazolo[3,4-d]pyrimidin-4-one], under setting [1], the Ki came to 93 nM. `Cc1nc2c(c(CF)nn2C(c2ccc(C(F)(F)F)cc2)C(C)C)c(=O)[nH]1` (single isomer, unassigned) [Example 212, (R)- or (S)-3-(Fluoromethyl)-6-methyl-1-(2-methyl-1-(4-(trifluoromethyl)phenyl)propyl)-1H-pyrazolo[3,4-d]pyrimidin-4(5H)-one]: the Ki under setting [2] was found to be 54 nM. As for `Cc1nn(C(C)c2ccc(C(F)(F)F)cc2)c2nc(-c3cnn(C)c3)[nH]c(=O)c12` (stereo not drawn) [Example 53, 3-Methyl-6-(1-methyl-1H-pyrazol-4-yl)-1-{1-[4-(trifluoromethyl)phenyl]ethyl}-1,5-dihydro-4H-pyrazolo[3,4-d]pyrimidin-4-one], the Ki under setting [1] is 29 nM. As for `Cc1nc2c(c(CF)nn2C(c2ccc(C(F)(F)F)cc2)C2(C)CC2)c(=O)[nH]1` (single isomer, unassigned) [Example 209], the Ki under setting [2] was 1 nM. The same measure, in the same setting: in the case of `Cc1nc2c(c(CF)nn2C(C)c2ccc(S(F)(F)(F)(F)F)cc2)c(=O)[nH]1` (single isomer, unassigned) [Example 200] it was 2.4 nM. For the compound `Cc1nc2c(c(CO)nn2C(C)(C)c2ccc(C(F)(F)F)cc2)c(=O)[nH]1` [Example 9, 3-(Hydroxymethyl)-6-methyl-1-{1-methyl-1-[4-(trifluoromethyl)phenyl]ethyl}-1,5-dihydro-4H-pyrazolo[3,4-d]pyrimidin-4-one], the Ki is, setting by setting: under setting [1], 54 nM; under setting [2], 56 nM.

Take `Cc1nc2c(c(C)nn2C(C)c2ccc(C(F)(F)F)cc2)c(=O)[nH]1` (single isomer, unassigned) [Example 36]: the Ki under setting [1] was 443 nM. Consider `Cc1nc2c(c(CO)nn2C(C)c2ccc(OC(F)(F)F)cc2)c(=O)[nH]1` (stereo not drawn) [Example 4], for which the Ki was 3.8 nM under setting [1] and 7.1 nM under setting [2]. Taken in the same sequence, the figures for `Cc1ccc(C(C)n2nc(CO)c3c(=O)[nH]c(C)nc32)cc1` (stereo not drawn) [Example 2, 3-(Hydroxymethyl)-6-methyl-1-(1-p-tolylethyl)-1H-pyrazolo[3,4-d]pyrimidin-4(5H)-one] were 26 nM and 30 nM. As to `Cc1nc2c(c(C)nn2C(C)c2ccc(C(F)(F)F)cc2)c(=O)[nH]1` (single isomer, unassigned) [Example 37], under setting [1], the Ki came out at 23 nM. Still for that read-out and setting: then `Cc1nn(C(C)c2ccc(C(F)(F)F)cc2)c2nc(-c3cnc4ccccc4n3)[nH]c(=O)c12` (stereo not drawn) [Example 50, 3-Methyl-6-quinoxalin-2-yl-1-{1-[4-(trifluoromethyl)phenyl]ethyl}-1,5-dihydro-4H-pyrazolo[3,4-d]pyrimidin-4-one], with 62 nM. On to `Cc1ccc(C(C)n2nc(CF)c3c(=O)[nH]c(C)nc32)cc1` (stereo not drawn) [Example 203, 3-(Fluoromethyl)-6-methyl-1-(1-p-tolylethyl)-1H-pyrazolo[3,4-d]pyrimidin-4(5H)-one], for which the Ki runs as follows: under setting [1], approximately 12 nM; under setting [2], 12 nM. Take `Cc1nc2c(c(CF)nn2C(C)c2ccc(OC(F)(F)F)cc2)c(=O)[nH]1` (single isomer, unassigned) [Example 207, (S)- or (R)-3-(Fluoromethyl)-6-methyl-1-(1-(4-(trifluoromethoxy)phenyl)ethyl)-1H-pyrazolo[3,4-d]pyrimidin-4(5H)-one]: the Ki amounted to 0.46 nM under setting [1] and 0.84 nM under setting [2].

Values taken from US10160762B2, “6-alkyl dihydropyrazolopyrimidinone compounds as PDE2 inhibitors” (Merck Sharp & Dohme Corp., priority 2015, dated 2018).
